# Experimental data reported in ChEMBL document CHEMBL3885861, “Open TG-GATES”.
# Species: Rattus norvegicus
# Experiment: Open TG-GATES - Regimen: Single
# Assay type: toxicity, organism-based, Sprague-Dawley
# Parameters: regimen Single, gender Male, age 6 weeks
# Details: in vivo, po, 0 mg/kg, route gavage, dose level Control; for Bas / Eos / Hb / Ht / Lym / MCH / MCHC / MCV / Mono / Neu / Plat / RBC / Ret / WBC: tissue Blood; for KIDNEY_L / KIDNEY_R / KIDNEY_TOTAL: tissue Kidney; for LIVER: tissue Liver; for A/G / ALP / ALT / AST / BUN / CRE / Ca / Cl / DBIL / GLC / IP / K / LDH / Na / PL / RALB / TBIL / TC / TG / TP / gamma-GTP: tissue Plasma
smiles,measurement,setting,value
Cc1ccc2cc3c(ccc4ccccc43)c3c2c1CC3 [3-METHYLCHOLANTHRENE],TERMINAL_BW,3 h,209.2 g
same,Bas,3 h,0%
same,Eos,3 h,0.6%
same,Hb,3 h,12.8 g/dL
same,Ht,3 h,39.3%
same,Lym,3 h,79.2%
same,MCH,3 h,20.8 pg
same,MCHC,3 h,32.6%
same,MCV,3 h,63.7 fL
same,Mono,3 h,3.6%
same,Neu,3 h,16.2%
same,Plat,3 h,126.1 x10_4/uL
same,RBC,3 h,616.6 x10_4/ul
same,Ret,3 h,8.7%
same,WBC,3 h,119.3 x10_2/uL
same,KIDNEY_L,3 h,0.9 g
same,KIDNEY_R,3 h,0.9 g
same,KIDNEY_TOTAL,3 h,1.9 g
same,LIVER,3 h,9.3 g
same,A/G,3 h,1.1
same,ALP,3 h,1726.2 IU/L
same,ALT,3 h,46.2 IU/L
same,AST,3 h,77.6 IU/L
same,BUN,3 h,10.5 mg/dL
same,CRE,3 h,0.1 mg/dL
same,Ca,3 h,10.7 mg/dL
same,Cl,3 h,104.3 meq/L
same,DBIL,3 h,0.002 mg/dL
same,GLC,3 h,185.2 mg/dL
same,IP,3 h,7.7 mg/dL
same,K,3 h,3.9 meq/L
same,LDH,3 h,179.6 IU/L
same,Na,3 h,140.3 meq/L
same,PL,3 h,163.8 mg/dL
same,RALB,3 h,2.8 g/dL
same,TBIL,3 h,0.002 mg/dL
same,TC,3 h,77.2 mg/dL
same,TG,3 h,142.8 mg/dL
same,TP,3 h,5.6 g/dL
same,gamma-GTP,3 h,0.7 IU/L
same,TERMINAL_BW,6 h,206.1 g
same,Bas,6 h,0%
same,Eos,6 h,0.6%
same,Hb,6 h,12.8 g/dL
same,Ht,6 h,38.9%
same,Lym,6 h,69%
same,MCH,6 h,20.7 pg
same,MCHC,6 h,32.8%
same,MCV,6 h,63.2 fL
same,Mono,6 h,3.4%
same,Neu,6 h,26.2%
same,Plat,6 h,124.5 x10_4/uL
same,RBC,6 h,616.2 x10_4/ul
same,Ret,6 h,8.7%
same,WBC,6 h,125.8 x10_2/uL
same,KIDNEY_L,6 h,0.9 g
same,KIDNEY_R,6 h,0.9 g
same,KIDNEY_TOTAL,6 h,1.8 g
same,LIVER,6 h,8.4 g
same,A/G,6 h,1
same,ALP,6 h,1728.2 IU/L
same,ALT,6 h,38 IU/L
same,AST,6 h,69.6 IU/L
same,BUN,6 h,8.9 mg/dL
same,CRE,6 h,0.1 mg/dL
same,Ca,6 h,10.4 mg/dL
same,Cl,6 h,104.5 meq/L
same,DBIL,6 h,0.002 mg/dL
same,GLC,6 h,201.6 mg/dL
same,IP,6 h,9.9 mg/dL
same,K,6 h,4.3 meq/L
same,LDH,6 h,114.8 IU/L
same,Na,6 h,139.9 meq/L
same,PL,6 h,142.4 mg/dL
same,RALB,6 h,2.7 g/dL
same,TBIL,6 h,0.014 mg/dL
same,TC,6 h,80.2 mg/dL
same,TG,6 h,51 mg/dL
same,TP,6 h,5.5 g/dL
same,gamma-GTP,6 h,0.7 IU/L
same,TERMINAL_BW,9 h,204.4 g
same,Bas,9 h,0%
same,Eos,9 h,0.6%
same,Hb,9 h,12.5 g/dL
same,Ht,9 h,38.9%
same,Lym,9 h,75.2%
same,MCH,9 h,20.7 pg
same,MCHC,9 h,32.1%
same,MCV,9 h,64.5 fL
same,Mono,9 h,2.6%
same,Neu,9 h,21%
same,Plat,9 h,129.6 x10_4/uL
same,RBC,9 h,603.8 x10_4/ul
same,Ret,9 h,9%
same,WBC,9 h,80.7 x10_2/uL
same,KIDNEY_L,9 h,1 g
same,KIDNEY_R,9 h,1 g
same,KIDNEY_TOTAL,9 h,1.9 g
same,LIVER,9 h,8.4 g
same,A/G,9 h,1
same,ALP,9 h,1550.4 IU/L
same,ALT,9 h,33.8 IU/L
same,AST,9 h,63.4 IU/L
same,BUN,9 h,10.6 mg/dL
same,CRE,9 h,0.1 mg/dL
same,Ca,9 h,10.6 mg/dL
same,Cl,9 h,103.4 meq/L
same,DBIL,9 h,0.004 mg/dL
same,GLC,9 h,176.6 mg/dL
same,IP,9 h,10.9 mg/dL
same,K,9 h,4.4 meq/L
same,LDH,9 h,137.8 IU/L
same,Na,9 h,141.6 meq/L
same,PL,9 h,132.2 mg/dL
same,RALB,9 h,2.7 g/dL
same,TBIL,9 h,0.006 mg/dL
same,TC,9 h,71.4 mg/dL
same,TG,9 h,52.7 mg/dL
same,TP,9 h,5.5 g/dL
same,gamma-GTP,9 h,0.7 IU/L
same,TERMINAL_BW,24 h,220.6 g
same,Bas,24 h,0%
same,Eos,24 h,0.6%
same,Hb,24 h,12.6 g/dL
same,Ht,24 h,38.4%
same,Lym,24 h,79.4%
same,MCH,24 h,20.5 pg
same,MCHC,24 h,32.7%
same,MCV,24 h,62.7 fL
same,Mono,24 h,3.2%
same,Neu,24 h,16%
same,Plat,24 h,119.3 x10_4/uL
same,RBC,24 h,612.8 x10_4/ul
same,Ret,24 h,8%
same,WBC,24 h,100 x10_2/uL
same,KIDNEY_L,24 h,0.9 g
same,KIDNEY_R,24 h,1 g
same,KIDNEY_TOTAL,24 h,1.9 g
same,LIVER,24 h,9.8 g
same,A/G,24 h,1
same,ALP,24 h,1697 IU/L
same,ALT,24 h,38 IU/L
same,AST,24 h,72 IU/L
same,BUN,24 h,13.8 mg/dL
same,CRE,24 h,0.1 mg/dL
same,Ca,24 h,10.9 mg/dL
same,Cl,24 h,103 meq/L
same,DBIL,24 h,0 mg/dL
same,GLC,24 h,186.2 mg/dL
same,IP,24 h,7.1 mg/dL
same,K,24 h,4.4 meq/L
same,LDH,24 h,181 IU/L
same,Na,24 h,142 meq/L
same,PL,24 h,160.8 mg/dL
same,RALB,24 h,2.8 g/dL
same,TBIL,24 h,0.006 mg/dL
same,TC,24 h,82 mg/dL
same,TG,24 h,134.9 mg/dL
same,TP,24 h,5.5 g/dL
same,gamma-GTP,24 h,0.8 IU/L
